Data published in US11459323B2, “Monocyclic β-lactam compound for treating bacterial infection” (MEDSHINE DISCOVERY INC., priority 2018, dated 2022).
Values after ≈ are worked out from the molar mass of the structure shown.

What was measured:
[1] = test system: Pseudomonas aeruginosa PA14; experiment: Lungs of immunosuppressed mice infected with Pseudomonas aeruginosa (1), lung bacterial load; format: in vivo; details: 24 hours after infection, total dosage 400 mg/kg, day, ip at 2 h, 4 h, 6 h, 8 h
Procedure: Pseudomonas aeruginosa PA14. 64 mice were intraperitoneally injected with 150 mg/kg cyclophosphamide on the first day and the fourth day to give immunosuppressed mice. […] [table] The mice were injected with 50 μL of bacterial solution (2×10^3 CFU) through the airway. 2 hours after the infection, 4 mice in the model group was sacrificed by removing cervical vertebra. Two hours after infection, the drugs were administered by groups, and the mice were administered intraperitoneally once at 2 hours, 4 hours, 6 hours, and 8 hours, a total of 4 times. Mice of each group were sacrificed by removing cervical vertebra 24 hours after infection, lung and kidney tissues were taken aseptically and put into sterilized tissue homogenate tubes, weighed, and an appropriate amount of normal saline (NS) was added, the mixture was homogenized by a homogenizer for 1 min, the lung tissues of the model group were diluted 10^4, 10^5, 10^6 times, the lung tissues of each administration group were diluted 10, 100 times, the kidney tissues of the model group were diluted 10^2, […], 10^4 times, and the lung tissues of each administration group were diluted 10 times, the obtained mixtures were coated on TSA plates using spiral coater, then incubated at 37° C. overnight, and the CFU was counted with a colony counter. Graphpad Prism mapping software was used to make scatter plots of lung tissue CFU. SPSS19.0 software was used to count CFU and average body weight, and analysis of variance was used to analyze differences between groups.

[2] = Body weight of mice in Pseudomonas aeruginosa lung infection experiment (1); format: in vivo, CD-1 (ICR) mice; details: Aztreonam group (400 mg/kg.day, ip)
Procedure: CD-1 (ICR) mice, provided by Beijing Charles River Laboratory Animal Technology Co., Ltd., weighing 23-27 g, 7 weeks old, female, a total of 64 mice.
The mice were weighed every day after the start of the experiment and the weight changes were recorded.
Graphpad Prism mapping software was used to make scatter plots of lung tissue CFU. SPSS19.0 software was used to count CFU and average body weight, and analysis of variance was used to analyze differences between groups.

A. baumannii ATCC 17978 = experiment: MIC by micro-liquid dilution method (CLSI); format: cell-based; details: Acinetobacter baumannii; A. baumannii ATCC17978; read-out: MIC
E. coli MG1655Δtol C = experiment: MIC by micro-liquid dilution method (CLSI); format: cell-based; details: Escherichia coli
From the text: (§1) Three strains of Klebsiella pneumonia, K. pneumoniae ATCC BAA-205 (TEM-1/SHV-1/SHV-12), K. pneumoniae ATCC BAA-1705 (KPC-2), K. pneumoniae ATCC BAA-2470 (NDM-1); three strains of Pseudomonas aeruginosa, P. aeruginosa NCTC13437 (VIM-10; VEB-1), P. aeruginosa PA 14 and P. aeruginosa ATCC 35151; four strains of Escherichia coli, E. coli NCTC 13476 (IMP-1 type), E. coli ATCC BAA-2523 (OXA-48), E. coli MG1655Δtol C, E. coli ATCC 25922; one strain of Acinetobacter baumannii, A. baumannii ATCC 17978 and one strain of Staphylococcus aureus, S. aureus NRS384 were used to determine the minimum inhibitory concentration (MIC) of the compounds by micro-liquid dilution method according to the Institute of Clinical and Laboratory Standard (CLSI) requirements.

[3] = test system: E. coli ATCC BAA-2523 (OXA-48); experiment: MIC by micro-liquid dilution method (CLSI); format: cell-based; details: Escherichia coli, ATCCBAA2523; E. coli ATCCBAA-2523; read-out: MIC
From the text: as §1

P. aeruginosa PA 14 = experiment: MIC by micro-liquid dilution method (CLSI); format: cell-based; details: Pseudomonas aeruginosa, PA14; P. aeruginosa PA 14; read-out: MIC
From the text: as §1

[4] = test system: E. coli NCTC 13476 (IMP-1 type); experiment: MIC by micro-liquid dilution method (CLSI); format: cell-based; details: Escherichia coli; E. coli NCTC13476; read-out: MIC
From the text: as §1

[5] = test system: K. pneumoniae ATCC BAA-2470 (NDM-1); experiment: MIC by micro-liquid dilution method (CLSI); format: cell-based, Klebsiella pneumonia; details: Klebsiella pneumoniae, ATCCBAA2470
[6] = test system: K. pneumoniae ATCC BAA-1705 (KPC-2); experiment: MIC by micro-liquid dilution method (CLSI); format: cell-based, Klebsiella pneumonia; details: Klebsiella pneumoniae, ATCCBAA1705
[7] = test system: K. pneumoniae ATCC BAA-205 (TEM-1/SHV-1/SHV-12); experiment: MIC by micro-liquid dilution method (CLSI); format: cell-based, Klebsiella pneumonia; details: Klebsiella pneumoniae, ATCCBAA205

Question: Which LOG10-of bacterial load [1] does the source give for `C[C@H]1[C@H](NC(=O)/C(=N\OC(C)(C)C(=O)O)c2csc(N)n2)C(=O)N1S(=O)(=O)O` [Aztreonam, reference compound] here?
Answer: Its LOG10-of bacterial load is 1.62 ± 2.22.

Question: What about the “Body weight on the fifth day” value [2] of the same compound?
Answer: Its value is 28.02 ± 1.08 g.

Question: What about the “Body weight on the first day” value [2] of the same compound?
Answer: The value was 27.16 ± 1.74 g.

Question: What about the “Body weight on the fourth day” value [2] of the same compound?
Answer: The value was 27.80 ± 2.37 g.

Question: And the MIC (A. baumannii ATCC 17978)?
Answer: The MIC was 32 µg/mL (≈ 73.5 µM).

Question: What about the MIC (E. coli MG1655Δtol C) of the same compound?
Answer: Its MIC is at most 0.125 µg/mL.

Question: What about the MIC [3] of the same compound?
Answer: Its MIC is 16 µg/mL (≈ 36.7 µM).

Question: And the MIC (P. aeruginosa PA 14)?
Answer: Its MIC is 8 µg/mL (≈ 18.4 µM).

Question: What about the MIC [4] of the same compound?
Answer: Its MIC is 0.25 µg/mL (≈ 0.574 µM).

Question: With `C[C@@H](O)[C@H]1C(=O)N2C(C(=O)O)=C(S[C@@H]3CN[C@H](C(=O)N(C)C)C3)[C@H](C)[C@H]12` [Meropenem, reference compound] as the compound, how does the MIC [5] read?
Answer: The MIC was over 128 µg/mL.

Question: What about the MIC [6] of the same compound?
Answer: The MIC was 128 µg/mL (≈ 334 µM).

Question: What about the MIC [7] of the same compound?
Answer: Its MIC is at most 0.125 µg/mL.

Question: What about the MIC (E. coli MG1655Δtol C) of the same compound?
Answer: The MIC was at most 0.125 µg/mL.

Question: What about the MIC [3] of the same compound?
Answer: Its MIC is 2 µg/mL (≈ 5.22 µM).

Question: What about the MIC (P. aeruginosa PA 14) of the same compound?
Answer: Its MIC is 0.5 µg/mL (≈ 1.3 µM).

Question: And the MIC [4]?
Answer: Its MIC is 32 µg/mL (≈ 83.4 µM).
